Assay results published in US20090131702A1, “METHOD FOR THE PRODUCTION OF METAL CARBOXYLATES AND THE METAL AMINOATE OR METAL HYDROXY ANALOGUE METHIONATE DERIVATIVES THEREOF, AND USE OF SAME AS GROWTH PROMOTERS IN ANIMAL FEED” (NOREL, S.A., priority 2003, published 2009).
Read-outs that look alike come from different tables or passages of the source. Marks after values point to notes of the source that are not given here.

Legend:
[1] = Zinc concentration in the liver of piglets (Example 11); type: in vivo; conditions: for Liver zinc / Ratio Zn in liver/Zn in diet: end of 21-day experiment, 220 ppm of zinc added to base diet
From the text: At the end of the experiment, one male and one female were selected at random from each batch to take a specimen of liver tissue and determine the zinc content.

[2] = Test of efficacy in piglets: production parameters, zinc glycinate / formate / complex (Example 14); type: in vivo; conditions: 21-50 days, 130 ppm of zinc added to base diet
From the text: The experimental period was 29 days.

[3] = piglets, 220 ppm of zinc added to base diet; for LW 28 d (live weight): day 28; for LW 42 d (live weight): day 42
Method: 300 piglets were used (cross of Large White and Landrace), 50% males and 50% females, weaned at 21 days of age and housed in 30 pens with 10 animals in each (5 males and 5 females).
Five experimental treatments were used, comprising the same basic diet, to which different sources of zinc are added:
The zinc dose was calculated taking into account the zinc content of the ingredients of the feed and the maximum permitted dose (250 ppm of zinc in the finished feed) in the case of treatments T-0 to T-2, and the dose with promoter effect (2000 ppm) in the case of treatment T-3.
The experimental period was 21 days.
The experimental model was a design of random blocks, with 6 replications per treatment. Each replication comprised a batch of 10 animals.
(§2) Control of production parameters was effected at the end of the experiment, recording the live weight, the daily growth and the consumption of feed.

[4] = Test in broilers: production parameters, zinc methioninate / formate / complex (Example 12); type: in vivo, broilers of the Ross strain; conditions: for IC (index of conversion) / MDC (mean daily consumption) / MDG (mean daily gain): 50 ppm of zinc added to base diet; for effect on production parameters (in words): 50 ppm of zinc, control T-0 = zinc sulfate; for LW 21 d (live weight): day 21, 50 ppm of zinc added to base diet; for LW 42 d (live weight): day 42, 50 ppm of zinc added to base diet
From the text: Four experimental treatments were used, comprising the same basic diet supplemented with different sources of zinc:
(§1) Control of production parameters was effected at 21 and 42 days of age, recording the live weight and the consumption of feed per batch.

[5] = broilers; for Zinc excreted / Zinc ingested / Bioavailability: 43 to 46 days of age, 50 ppm of zinc added to base diet; for zinc bioavailability (in words): 50 ppm of zinc; for Bioavailability: zinc
[6] = Test of efficacy in piglets: production parameters, copper glycinate / formate / complex (Example 15); type: in vivo; conditions: 21-42 days, 125 ppm of copper added to base diet
From the text: as §2

[7] = Test in broilers: production parameters, copper methioninate / formate / complex (Example 13); type: in vivo, broilers of the Ross strain; conditions: for MDC (mean daily consumption) / MDG (mean daily gain) / IC (index of conversion): 25 ppm of copper added to base diet; for LW 21 d (live weight): day 21, 25 ppm of copper added to base diet; for LW 42 d (live weight): day 42, 25 ppm of copper added to base diet
Method: Four experimental treatments were used, comprising the same basic diet supplemented with different sources of copper:
The dose of copper was calculated taking into account the copper content of the ingredients and the copper requirements in the case of treatments T-0 to T-3.
as §1

[8] = broilers; for LW 21 d (live weight): day 21; for LW 42 d (live weight): day 42
[9] = broilers
Method: During the next 4 days, an investigation of the bioavailability of the copper was carried out. After fasting for 20 hours, the live weight per cage was recorded and the experimental feeds were supplied for 2 days, recording the consumption of feed.

[10] = broilers; remark: listed apart in the source
[11] = broilers, 150 ppm of zinc added to base diet
From the text: 160 one-day old broilers of the Ross strain were used (without differentiation of sexes), housed in cages in groups of 10 animals.
Control of production parameters was effected at 21 days of age, recording the live weight and the consumption of feed per batch.

[12] = piglets, 21-41 days; 150 ppm of zinc added to base diet
Method: 24 piglets were used (Large White*Large White×Landrace), 50% males and 50% females, weaned at 21 days of age and housed in 4 pens with 6 animals in each (3 males and 3 females).
The zinc dose was calculated taking into account the zinc content of the ingredients and the maximum permitted dose (150 ppm) in all the treatments.
The experimental period was 20 days.
as §2

[13] = 0-21 days, 20 ppm of copper added to base diet
[14] = 0-21 days, 150 ppm of copper added to base diet
[15] = 0-42 days, 20 ppm of copper added to base diet
[16] = 0-42 days, 150 ppm of copper added to base diet
[17] = 21-42 days, 20 ppm of copper added to base diet
[18] = 21-42 days, 150 ppm of copper added to base diet
[19] = 20 ppm of copper added to base diet
[20] = 150 ppm of copper added to base diet
[21] = 43 to 46 days of age, 20 ppm of copper added to base diet
[22] = 43 to 46 days of age, 150 ppm of copper added to base diet
[23] = 43 to 46 days of age, 25 ppm of copper added to base diet

[O]=[Zn] [zinc oxide]
liver zinc concentration (in words) ([1]; dose of 220 ppm): lowest
Liver zinc [1]: 47.63a μg/g
Ratio Zn in liver/Zn in diet [1]: 19.8ab
GLW 21-50 d (gain in live weight) [2]: 11.40 a kg
IC (index of conversion) [2]: 2.02 a
MDC (mean daily consumption) [2]: 795.3 g/day
MDG (mean daily gain) [2]: 393.1 a g
IC (index of conversion) ([3]; 21-28 days): 1.32 a
MDC (mean daily consumption) ([3]; 21-28 days): 321.7 g/day
MDG (mean daily gain) ([3]; 21-28 days): 244.5 A g
IC (index of conversion) ([3]; 21-42 days): 1.67 a
MDC (mean daily consumption) ([3]; 21-42 days): 795.3 g/day
MDG (mean daily gain) ([3]; 21-42 days): 475.3 a g
LW 28 d (live weight) [3]: 8.41 A kg
LW 42 d (live weight) [3]: 13.11 a kg

Zinc butyrate
ratio of zinc in the liver to zinc in the diet (in words) ([1]; 220 ppm of zinc): highest ratio
Liver zinc [1]: 56.3a μg/g
Ratio Zn in liver/Zn in diet [1]: 22.3bc
IC (index of conversion) ([3]; 21-28 days): 1.09 b
MDC (mean daily consumption) ([3]; 21-28 days): 286.3 g/day
MDG (mean daily gain) ([3]; 21-28 days): 262.9 ab g
IC (index of conversion) ([3]; 21-42 days): 1.45 b
MDC (mean daily consumption) ([3]; 21-42 days): 741.3 g/day
MDG (mean daily gain) ([3]; 21-42 days): 509.6 b g
LW 28 d (live weight) [3]: 8.99 B kg
LW 42 d (live weight) [3]: 14.15 b kg

NCC(=O)[O-].NCC(=O)[O-].[Zn+2] [zinc glycinate]
GLW 21-50 d (gain in live weight) [2]: 12.75 b kg
IC (index of conversion) [2]: 1.68 b
MDC (mean daily consumption) [2]: 741.3 g/day
MDG (mean daily gain) [2]: 439.6 b g

zinc methioninate
IC (index of conversion) ([4]; 0-21 days): 1.35 b
MDC (mean daily consumption) ([4]; 0-21 days): 48.1 g/day
MDG (mean daily gain) ([4]; 0-21 days): 35.7 b g
IC (index of conversion) ([4]; 0-42 days): 1.82 b
MDC (mean daily consumption) ([4]; 0-42 days): 101.7 g/day
MDG (mean daily gain) ([4]; 0-42 days): 55.7 b g
IC (index of conversion) ([4]; 21-42 days): 2.05 b
MDC (mean daily consumption) ([4]; 21-42 days): 155.2 g/day
MDG (mean daily gain) ([4]; 21-42 days): 75.7 b g
effect on production parameters (in words) [4]: same effect
LW 21 d (live weight) [4]: 750 b g
LW 42 d (live weight) [4]: 2340 b g
Zinc excreted [5]: 7.35^b mg
Zinc ingested [5]: 12.6^a mg
zinc bioavailability (in words) [5]: highest bioavailability
Bioavailability [5]: 42.6^b %

NCC(=O)[O-].NCC(=O)[O-].[Cu+2] [copper glycinate]
GLW 21-42 d (gain in live weight) [6]: 7.25 b kg
IC (index of conversion) [6]: 1.91 b
MDC (mean daily consumption) [6]: 660.5 g/day
MDG (mean daily gain) [6]: 345.0 b g

O=S(=O)([O-])[O-].[Cu+2] [copper sulfate]
MDC (mean daily consumption) ([7]; 0-21 days): 45.3 g/day
MDG (mean daily gain) ([7]; 0-21 days): 31.6 a g
MDC (mean daily consumption) ([7]; 0-42 days): 102.7 g/day
MDG (mean daily gain) ([7]; 0-42 days): 51.6 a g
MDC (mean daily consumption) ([7]; 21-42 days): 160.1 g/day
MDG (mean daily gain) ([7]; 21-42 days): 71.6 a g
LW 21 d (live weight) [7]: 695 a g
LW 42 d (live weight) [7]: 2200 a g
GLW 21-42 d (gain in live weight) [6]: 6.5 a kg
MDC (mean daily consumption) [6]: 650.5 g/day
MDG (mean daily gain) [6]: 309.5 a g
MDC (mean daily consumption) [8, 13]: 48.9 g/day
MDG (mean daily gain) [8, 13]: 34.2 a g
MDC (mean daily consumption) [8, 14]: 49.7 g/day
MDG (mean daily gain) [8, 14]: 35.9 b g
MDC (mean daily consumption) [8, 15]: 98.2 g/day
MDG (mean daily gain) [8, 15]: 50.6 a g
MDC (mean daily consumption) [8, 16]: 99.5 g/day
MDG (mean daily gain) [8, 16]: 55.2 b g
MDC (mean daily consumption) [8, 17]: 149.3 g/day
MDG (mean daily gain) [8, 17]: 69.2 a g
MDC (mean daily consumption) [8, 18]: 154.2 g/day
MDG (mean daily gain) [8, 18]: 76.7 b g
LW 21 d (live weight) [8, 19]: 716 a g
LW 21 d (live weight) [8, 20]: 756 b g
LW 42 d (live weight) [8, 19]: 2172 a g
LW 42 d (live weight) [8, 20]: 2362 b g
Copper excreted [9, 21]: 4.08^a mg
Copper ingested [9, 21]: 7.3^a mg
Copper excreted [9, 22]: 397.3^b mg
Copper ingested [9, 22]: 652.4^b mg
Copper excreted [10, 23]: 20.4^a mg
Copper ingested [10, 23]: 67.98^a mg

O=S(=O)([O-])[O-].[Zn+2] [zinc sulfate]
MDC (mean daily consumption) ([4]; 0-21 days): 47.3 g/day
MDG (mean daily gain) ([4]; 0-21 days): 33.6 a g
MDC (mean daily consumption) ([4]; 0-42 days): 101.7 g/day
MDG (mean daily gain) ([4]; 0-42 days): 53.5 a g
MDC (mean daily consumption) ([4]; 21-42 days): 156.3 g/day
MDG (mean daily gain) ([4]; 21-42 days): 73.6 a g
LW 21 d (live weight) [4]: 705 a g
LW 42 d (live weight) [4]: 2250 a g
Zinc excreted [5]: 8.34^a mg
Zinc ingested [5]: 12.4^a mg

Copper butyrate
IC (index of conversion) [8, 13]: 1.35 b
MDC (mean daily consumption) [8, 13]: 48.9 g/day
MDG (mean daily gain) [8, 13]: 36.2 b g
IC (index of conversion) [8, 15]: 1.76 b
MDC (mean daily consumption) [8, 15]: 97.2 g/day
MDG (mean daily gain) [8, 15]: 55.1 b g
IC (index of conversion) [8, 17]: 1.94 b
MDC (mean daily consumption) [8, 17]: 147.2 g/day
MDG (mean daily gain) [8, 17]: 75.9 b g
LW 21 d (live weight) [8, 19]: 763 b g
LW 42 d (live weight) [8, 19]: 2358 b g
Copper excreted [9, 21]: 2.99^a mg
Copper ingested [9, 21]: 7.3^a mg
copper bioavailability (in words) ([9]; 20 ppm of copper): highest bioavailability
Bioavailability ([9]; copper, 43 to 46 days of age, 20 ppm of copper added to base diet): 59.09^b %

copper methioninate
IC (index of conversion) ([7]; 0-21 days): 1.36 b
MDC (mean daily consumption) ([7]; 0-21 days): 47.1 g/day
MDG (mean daily gain) ([7]; 0-21 days): 34.7 b g
IC (index of conversion) ([7]; 0-42 days): 1.86 b
MDC (mean daily consumption) ([7]; 0-42 days): 100.5 g/day
MDG (mean daily gain) ([7]; 0-42 days): 54.0 b g
IC (index of conversion) ([7]; 21-42 days): 2.08 b
MDC (mean daily consumption) ([7]; 21-42 days): 154.0 g/day
MDG (mean daily gain) ([7]; 21-42 days): 73.8 b g
effect on production parameters (in words) ([7]; 25 ppm of copper, control T-0 = copper sulfate): same effect
LW 21 d (live weight) [7]: 750 b g
LW 42 d (live weight) [7]: 2300 b g
Copper excreted [10, 23]: 29.5^b mg
Copper ingested [10, 23]: 69.3^a mg
copper bioavailability (in words) ([10]; 25 ppm of copper): highest bioavailability
Bioavailability ([10]; copper, 43 to 46 days of age, 25 ppm of copper added to base diet): 42.6^b %

O=C[O-].O=C[O-].[Zn+2] [zinc formate, Zinc formate]
Liver zinc [1]: 59.21a μg/g
MDC (mean daily consumption) ([4]; 0-21 days): 48.3 g/day
MDG (mean daily gain) ([4]; 0-21 days): 35.2 b g
MDC (mean daily consumption) ([4]; 0-42 days): 100.4 g/day
MDG (mean daily gain) ([4]; 0-42 days): 55.0 b g
MDC (mean daily consumption) ([4]; 21-42 days): 152.5 g/day
MDG (mean daily gain) ([4]; 21-42 days): 74.8 b g
effect on production parameters (in words) [4]: same effect
LW 21 d (live weight) [4]: 740 b g
LW 42 d (live weight) [4]: 2310 b g
GLW 21-50 d (gain in live weight) [2]: 12.50 b kg
MDC (mean daily consumption) [2]: 752.3 g/day
MDG (mean daily gain) [2]: 431.0 b g
MDC (mean daily consumption) ([3]; 21-28 days): 312.3 g/day
MDG (mean daily gain) ([3]; 21-28 days): 268.6 B g
MDC (mean daily consumption) ([3]; 21-42 days): 752.3 g/day
MDG (mean daily gain) ([3]; 21-42 days): 512.6 b g
LW 28 d (live weight) [3]: 8.76 ab kg
LW 42 d (live weight) [3]: 14.30 b kg
MDC (mean daily consumption) ([11]; 0-21 days): 47.5 g/day
MDG (mean daily gain) ([11]; 0-21 days): 37.6 b g
LW 21 d (live weight) ([11]; day 21): 790 b g
GLW 21-41 d (gain in live weight) [12]: 8.00 b kg
MDC (mean daily consumption) [12]: 655.0 g/day
MDG (mean daily gain) [12]: 400.0 b g
Zinc excreted [5]: 7.20^b mg
Zinc ingested [5]: 13.3^a mg
zinc bioavailability (in words) [5]: highest bioavailability
Bioavailability [5]: 45.8^b %
